The values below come from patent US7220732B2, “Compounds useful as photodynamic therapeutic agents” (priority 2002, dated 2007).

Read-outs that look alike come from different tables or passages of the source.

Common to all, as to format: cell-based
The test system of experiment [1] is HeLa cells. In words: Fluorescence microscopy uptake study in HeLa cells. Conditions: 10^−5 M, water/Cremophor. As to the method: Cells were seeded at a density of 30,000 cells/well in chamber slides and allowed to adhere for 24 hr. A compound of the present invention (10^−5 M) was then added to each chamber and incubated at 37° C. in the dark over time, for example, 15 min, 30 min, 1 hr, 3 hr and 6 hr. The medium was removed after the specified time and the cells were washed 4 times with medium free of that compound of the invention. The cells were then fixed with 3.7% (v/v) formaldehyde for 15 min at 37° C. The fixative solution was removed and the cells were washed twice with sterile PBS. DAPI nuclear stain (1/1000) was then incubated with the cells for 10 is min at 37° C., following which the cells were washed twice with PBS. Cells were then mounted in Vectashield (Trade Mark) mounting medium.
LabWorks (Bioimaging Systems) was used to calculate the average fluorescence intensity per cell for each of the different time points used in the uptake and efflux studies for the compounds of the present invention. […] The DAPI filter was used to accurately count the number of cells in each field of view and the rhodamine filter was used to quantify the fluorescence of the compounds of the present invention. […]
Using the assay method set out above under the heading “Fluorescence Microscopy”, the uptake of 2a was examined for HeLa and MRC5 […] cell lines and the data are illustrated in FIGS. 6a and 6b, respectively. […]

Experiment [2] relates to HeLa cells. The experiment in a line: Fluorescence microscopy efflux study in HeLa cells. Conditions: after 3 hrs incubation with 10^−5 M. As to the method:
Cells were seeded at a density of 30,000 cells/well in chamber slides and allowed to adhere for 24 hr. A compound of the present invention (10^−5 M) was then added to each chamber and incubated at 37° C. in the dark for 3 hrs. The same procedure was used as for the uptake studies, but for the efflux studies, the cells were treated with fixative solution at specified times after removal of the drug, for example, 5 min, 15 min, 30 min, 1 hr, 2 hr, 3 hr, 6 hr and 24 hr. The slides were then viewed using an Axio Zeiss fluorescent microscope. The cells were examined at the different time points using two different filters. The rhodamine filter was used to visualise the compound of the present invention. […]
LabWorks (Bioimaging Systems) was used to calculate the average fluorescence intensity per cell for each of the different time points used in the uptake and efflux studies for the compounds of the present invention. […] The DAPI filter was used to accurately count the number of cells in each field of view and the rhodamine filter was used to quantify the fluorescence of the compounds of the present invention.
Using the assay method set out above under the heading “Fluorescence Microscopy”, the efflux of 2a was examined from Hela cells and the data are illustrated in FIG. 7. […]

The test system of the next experiment is MRC5 cells. In words: Light/dark cytotoxicity study (MTT) in MRC5 cells. The protocol: MRC5 and HeLa cell cultures were maintained in MEM (minimum essential medium) containing 10% (v/v) foetal calf serum (FCS), 1% (v/v) non-essential amino acids, 2 μg/ml Fungizone (Trade Mark) (amphotericin B), 50 μg/ml penicillin, 50 μg/ml streptomycin, 20 mM HEPES and 1% (v/v) L-Glutamine. Cells were passaged at least twice before use in the cytotoxicity assays.
Stock haematoporphyrin water-dimethyl sulphoxide (DMSO) (100:1 (v/v)) solutions were diluted with MEM containing 10% FCS. Cells were seeded at 5,000 cells/well in 96-well plates and incubated for 24 hr at 37° C. The 24 hour incubation period was chosen having regard to the slower uptake of haernatoporphyrin in the absence of Cremophor, when compared to the compounds of the present invention in the presence of Cremophor (see below). Cells were then incubated with haematoporphyrin in the dark for 24 hr at 37° C. The haematoporphyrin laden culture medium was then removed by filtration, the cells were washed with PBS and fresh culture medium was added to each well. A 500 W light source, passed through a red glass and water filter barrier, (to ensure cells are irradiated with light of wavelength greater than 570 nm) was used to irradiate the plates for both 15 and 30 min. Following irradiation, the cells were incubated for a further 48 hr at 37° C. before being assessed for cell survival.
Stock 2a or 2b water-Cremophor EL (Trade Mark—CAS 61791-12-6) (1:250 (v/v)) solutions were diluted with MEM containing 10% FCS. Cells were seeded at 5,000 cells/well in 96-well plates and incubated for 24 hr at 37° C. Cells were then incubated with 2a or 2b in the dark for 3 hr at 37° C. The 3 hour incubation period was chosen to reflect the faster cellular uptake of 2a or 2b in the presence of Cremophor, when compared to the cellular uptake of haematoporphyrins in the absence of Cremophor. The 2a or 2b laden culture medium was then removed by filtration, the cells were washed with PBS and fresh culture medium was added to each well. The plates were then irradiated using a 500 W light source passed through a red glass and water filter barrier, (thereby ensuring cells are irradiated with light of wavelength greater than 570 nm) for both 15 and 30 min.
Following irradiation, the cells were incubated for a further 48 hr at 37° C. before being assessed for cell survival. The dark toxicity of compounds of the present invention was also assessed in each experiment.
Cell viability was estimated using the standard MTT (microtiter tetrazolium) assay. This assay measures mitochondrial dehydrogenase activity and is based on the reduction of a soluble yellow tetrazolium salt to a blue, insoluble MTT formazan product by this enzyme. The subsequent colour change produced by viable cells was quantified using a plate reader (VICTOR^2 1420 multilabel HTS counter, Wallac). As mentioned above under the headings “Cytotoxicity”, the cells are incubated at 37° C. for 48 hours, following which the MTT solution was added to the cells at a final concentration of 0.5 mg/ml and incubated for 3 hr at 37° C. The MTT solution was then removed by filtration and 100 μl DMSO was added to each well in order to lyse the cells and release the formazan dye. The plates were read 1 hr later at 540 nm.
Prism (Trade Mark) […] was used to graph the data obtained from the MTT assays and the uptake/efflux experiments. This programme allows non-linear regression analysis and the generation of sigmoidal dose response curves. Prism (Trade Mark) also automatically calculates EC50 values.
Light toxicity assays were also carried out as described above under “Assay methods” in HeLa and MRC5 cells for haematoporphyrin (FIGS. 9 and 10), 2a (FIGS. 11 and 12) and 2b (FIGS. 13 and 14).

In the case of `F[B-]1(F)n2c(-c3ccccc3)cc(-c3ccccc3)c2N=C2C(c3ccccc3)=CC(c3ccccc3)=[N+]21` [Compound 2a], in the experiment on HeLa cells [1], the “time of maximum uptake” value amounted to 300 min. In addition, the “time to complete efflux” value in the experiment on HeLa cells [2] was 1000 min. Further, the EC50 in the experiment with MRC5 cells (MRC5, 0 J/cm^2 light (no light), read-out: EC50 (dark toxicity)) was determined as 3.5 µM; with MRC5 cells (MRC5, 8 J/cm^2 light (15 mins from a 500 W light source), read-out: EC50), 2 µM; in the experiment with MRC5 cells (MRC5, 16 J/cm^2 light (30 mins from a 500 W light source), read-out: EC50), 0.46 µM.
